Test results published in PubChem BioAssay AID1288 (Columbia University Molecular Screening Center, 2008).
Active and inactive are the calls of the source. No rule for the calls is given here.

test: inhibitors of TNFa-induced E-selectin expression, confirmation, imaging, retest plus dose response, cell count (AID 1288); conditions: human endothelial cells, TNFa-induced E-selectin, imaging; at 2 µM; hits give high values;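 also: 0% = stimulated vehicle wells and 100% = unstimulated vehicle wells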

| Compound | inhibition |
| --- | --- |
| Cc1ccc(C)c(N(CC(=O)NCCSCc2ccco2)S(C)(=O)=O)c1 | 6.59% (inactive) |
| CC(=O)C1=C(C)NC(SCc2cccc3ccccc23)=C(C#N)C1c1ccco1 (stereo not given) | 5.13% (inactive) |
| COC(=O)c1c(-c2ccccc2)csc1NC(=O)c1ccco1 | 14.7% (inactive) |
| COc1cccc(C(C)NC(=O)c2c(F)cccc2Cl)c1 (stereo not given) | 21.5% (inactive) |
| CCCNc1ncnc2sc(C)c(C)c12 | 12.7% (inactive) |
| COC(=O)c1nnn(-c2ccc(Cl)c(Cl)c2)c1C(=O)OC | 11.3% (inactive) |
| CCS(=O)(=O)NCC(c1ccco1)N1CCN(c2ccccc2)CC1 (stereo not given) | 0.44% (inactive) |
| CCN(CC)c1ccc(NC(=O)COC(=O)/C=C/c2nc3ccccc3s2)cc1 | 15.5% (inactive) |
| FC(F)(F)c1cnc2c(-c3ccccc3)n[nH]c2c1 | 0.15% (inactive) |
| CC(C)(C)c1cc(OC(=O)c2ccncc2)ccc1O | 7.95% (inactive) |
| O=C(C1CCN(S(=O)(=O)c2cnc[nH]2)CC1)N1CCN(c2ncccn2)CC1 | 31.7% (inactive) |
| Cc1ccc(S(=O)(=O)Nc2ccc(NC(=O)Nc3ccc(F)cc3F)cc2)cc1 | 37.3% (inactive) |
| Cn1c(=O)c2c(nc(SCC(=O)NC34CC5CC(CC(C5)C3)C4)n2C)n(C)c1=O | 16.3% (inactive) |
| CC(=O)c1ccc(NC(=S)N2CC(C)CC(C)C2)cc1 (stereo not given) | -4.33% (inactive) |
| COc1ccc(CNC(=O)C(CCSC)NS(=O)(=O)c2ccccc2F)cc1 (stereo not given) | 5.1% (inactive) |
| CC(C)Cc1nnc(NS(C)(=O)=O)s1 | 4.19% (inactive) |
| CCOC(=O)Cc1c(C)nc2c(-c3ccccc3)c[nH]n2c1=O | 0.71% (inactive) |
| COc1ccccc1N1CCN(C(=O)c2ccc(Br)s2)CC1 | 0.09% (inactive) |
| c1ccc(-n2c(Sc3cnccn3)nnc2-c2cccs2)cc1 | 8.66% (inactive) |
| COCCN(C(=O)CCC(=O)Nc1ccccn1)C(C(=O)NC1CCCC1)c1ccc(OC)cc1 (stereo not given) | 2.57% (inactive) |
| O=C(CSc1nc2ccccc2[nH]1)N1CCN(S(=O)(=O)c2ccc(Cl)cc2)CC1 | 3.87% (inactive) |
| COCCCNC(=O)CN1C(=O)c2ccccc2C1=O | 5.47% (inactive) |
| Cc1cc(N2CCCCC2)nc(NCc2ccccc2)n1 | 36.1% (inactive) |
| Cc1nc2ccc(NC(=O)c3cc(S(=O)(=O)N4CCOCC4)ccc3C)cc2s1 | 16% (inactive) |
| O=C(CSc1ccccn1)N/N=C/c1ccccc1[N+](=O)[O-] | 5.02% (inactive) |

| Compound | inhibition |
| --- | --- |
| CC1(C)NC(=O)N(CC(O)COc2cc3ccccc3cc2C(=O)N2CCCCC2)C1=O (stereo not given) | 7% (inactive) |
| Cc1cccc(C(=O)NNC(=O)Nc2ccccc2)c1 | -2.06% (inactive) |
| COc1ccc(C(=O)/C=C/c2ccc(F)cc2)c(OC(=O)c2ccc([N+](=O)[O-])cc2)c1 | 5.11% (inactive) |
| COCCN1C(=O)N(c2cccc(C)c2)C(=O)C1CC(=O)Nc1ccc(F)cc1 (stereo not given) | 12% (inactive) |
| c1ccc(NC2=NCCCCS2)cc1 | 15.9% (inactive) |
| CCOC(=O)c1cc2c(ccn2C)n1CC(=O)N1CCC(Cc2ccccc2)CC1 | 4.26% (inactive) |
| CCOC(=O)c1c(C)[nH]c(C(=O)OCCOc2ccccc2C)c1C | 0.85% (inactive) |
| Cc1ccc2cc(C#N)c(N3CCCC3)nc2c1C | 8.05% (inactive) |
| COc1ccc(-n2nc([N+](=O)[O-])c(=NCCc3ccc(Cl)cc3)n2O)cc1 | 6.09% (inactive) |
| Cc1ccc(CNc2ccc(S(=O)(=O)N3CCOCC3)cc2[N+](=O)[O-])cc1 | 0.77% (inactive) |
| COc1ccc(C(=O)C(CO)Oc2ccccc2OC)cc1OC (stereo not given) | 1.41% (inactive) |
| COc1ccc(CNC(=O)c2ccc(NC(=O)CC3SC(N4CCCCC4)=NC3=O)cc2)cc1 (stereo not given) | 4.81% (inactive) |
| CCOC(=O)N1CCC(NC(=O)CN2C(=O)CSc3nc(C)cc(C)c32)CC1 | 3.53% (inactive) |
| C=CCn1c(SCC(=O)NCc2ccccc2)nnc1-c1ccccc1O | -0.67% (inactive) |
| COc1ccc(-c2nc3cnccn3c2NC(C)(C)CC(C)(C)C)cc1O | 6.02% (inactive) |
| Nc1cccc(-n2nncc2-c2ccc(Cl)cc2)c1 | 18.2% (inactive) |
| Cc1cc(C(=O)N2CCc3ccccc32)c2ccccc2n1 | 2.81% (inactive) |
| O=C(NCc1nc(-c2ccccc2)no1)c1ccc2c(c1)OCO2 | 24.1% (inactive) |
| COc1ccc(Nc2nc(C)cc(C)c2C#N)cc1OC | 6.96% (inactive) |
| CCCSc1nc(C)c(-c2csc(C(C#N)=C3CCCC3)n2)cc1C#N | 8.04% (inactive) |
| Fc1ccc(CNc2nc(-c3ccccc3)nc3ccccc23)cc1 | 26.5% (inactive) |
| O=C1c2cccc(OCC(=O)N3CCCc4ccccc43)c2CCN1Cc1ccc(Br)cc1 | -5.27% (inactive) |
| O=C(Nc1ccccc1C(=O)N/N=C/c1ccco1)c1ccc(F)cc1 | 10.5% (inactive) |
| COc1cc(-c2noc(CCC(=O)Nc3cccnc3)n2)cc(OC)c1OC | 33.6% (inactive) |
| Cc1cc(C(=O)CN2C(=O)NC(c3ccccc3)(c3ccccc3)C2=O)c(C)n1Cc1ccco1 | -3.9% (inactive) |
